Columns and labels:
[1] = test system: transplanted tumor of human gastric adenocarcinoma cell SGC7901; experiment: SGC7901 transplanted tumor in nude mice; conditions: SGC7901; 30 mg/kg i.g. 30 days
Protocol: (§1) Then cell concentration was adjusted to 1×10^7/ml with matrigel, then each nude mouse was inoculated subcutaneously with 0.2 ml of cells at its right armpit and recorded as the first day of inoculation. When the tumor grows to be greater than or equal to 100 mm^3, the mice were randomly divided into 11 groups with 6 mice in each group: a model group, a cyclophosphamide group, isovaleryl spiramycin I groups with doses of 25, 50 and 100 mg/kg, isovaleryl spiramycin II groups with doses of 25, 50 and 100 mg/kg, and isovaleryl spiramycin III groups with doses of 25, 50 and 100 mg/kg. Each group was continuously administered intragastrically for 30 days with a dose of 20 ml/kg. The mice were sacrificed the next day after drug withdrawal and the indicators were tested. The long diameter and short diameter of the tumor, and the body weight of each mouse were recorded every 3 days from drug administration to nude mouse sacrifice.
(§2) The body weight of the nude mice and the long diameter (a) and short diameter (b) of the transplanted tumor were measured every 3 days, and the tumor volume (v), relative tumor volume (RTV) and relative tumor proliferation rate (T/C) are calculated respectively according to the following formulas, wherein V=a×b^2/2; RTV=V/V0 (V0 is the tumor volume before administration, V is the tumor volume before sacrifice), and T/C (%)=treatment group RTV/model control group RTV×100%.
(§3) Each mouse was weighed and sacrificed. After the tumor was completely stripped off from the body of the mouse, the non-tumor tissues such as blood stains and fat were removed to weigh the tumor and calculate the tumor growth inhibition rate. The average tumor weight of each group of mice is used as an indicator of efficacy. Tumor growth inhibition rate (%)=(1−the average tumor weight of the treatment group/the average tumor weight of the model group)×100%.

[2] = test system: transplanted tumor of human renal clear cell adenocarcinoma cell 786-O; experiment: 786-O transplanted tumor in nude mice; conditions: 786-O nude mice, 30 mg/kg
Protocol: as §1, with “786-O cells in a logarithmic growth phase were taken and subjected to a trypan blue exclusion experiment showing that the cell viability was more than 95%, then the cells were subjected to trypsinization, centrifugation, and supernatant removal. Then” for “Then”
as §2, §3

[3] = test system: transplanted tumor of mouse H22 liver cancer; experiment: Transplanted tumor of mouse H22 liver cancer
Protocol: The H22 cell strains cryopreserved in liquid nitrogen were resuscitated in Kunming mice. After 3 generations, the ascites of Kunming mice were taken and placed in a 50 ml centrifuge tube in which 10 ml of 0.9% normal saline was added, and then centrifuging was performed at 1000 rpm for 5 min at room temperature, and the obtained supernatant was removed. Then 10 ml of 0.9% normal saline was added to the tube to blow and mix well, and then the mixture was diluted to 5×10^6 live cells/ml with normal saline after counting. The tube was stored in ice water, and 75% ethanol was used to disinfect the skin under the right armpits of the mice. Each Kunming mouse was soon inoculated subcutaneously with 0.2 ml of the cells at the armpit of the right forelimb.
In the H22 liver cancer model, the mice inoculated with the tumor were randomly divided into groups with 10 mice in each group on the next day of inoculation. The groups included: a model control group, a positive drug cyclophosphamide control group (CTX, 26 mg/kg), isovaleryl spiramycin I groups with doses of 13, 26 and 52 mg/kg; isovaleryl spiramycin II groups with doses of 13, 26 and 52 mg/kg; isovaleryl spiramycin III groups with doses of 13, 26 and 52 mg/kg. Each group was continuously administered intragastrically for 7 days with a dose of 20 ml/kg.
The tumor-bearing mice were weighed and sacrificed the next day after the last administration. The subcutaneous tumors were dissected and weighed. The average tumor weight of each group is calculated, and the tumor inhibition rate is calculated.
Tumor inhibition rate=(1−T/C)×100%
T: average tumor weight of the drug-administered group; C: average tumor weight of the blank control group.

SMILES: O=P1(N(CCCl)CCCl)NCCCO1 (centres unmarked) [Cyclophosphamide, cyclophosphamide, reference compound]
- Body Weight (d 1) [1]: 22.63 ± 1.35 g
- Body Weight (d 30) [1]: 19.85 ± 0.72 g
- Inhibition Rate (tumor growth inhibition rate) [1]: 72.26%
- Relative Tumor Proliferation Rate (T/C) [1]: 30.71%
- Relative Tumor Volume (RTV) [1]: 4.27 ± 2.36
- Tumor Volume (d 1) [1]: 252.63 ± 74.57 mm3
- Tumor Volume (d 30) [1]: 865.27 ± 422.15 mm3
- Tumor Weight [1]: 0.44 ± 0.41 g
- Inhibition Rate (%) [2]: 70.51%
- Relative Tumor Proliferation Rate (T/C) [2]: 37.41%
- Relative Tumor Volume (RTV) [2]: 6.76 ± 0.79
- Tumor Weight [2]: 0.63 ± 0.04 g
- Body Weight (g) (d1) ([2]; d1): 21.58 ± 0.81 g
- Tumor Volume (mm3) (d 1) ([2]; d1): 108.64 ± 14.40 mm3
- Body Weight (g) (d30) ([2]; d30): 19.42 ± 0.67 g
- Tumor Volume (mm3) (d30) ([2]; d30): 734.23 ± 24.66 mm3
- weight compared with the normal control group ([3]; H22, CTX 26 mg/kg i.g. 7 days): slight decrease
- tumor inhibition rate ([3]; Kunming mouse H22 liver cancer, CTX 26 mg/kg i.g. 7 days): 73.03%
- Inhibition Rate (%) ([3]; dose 26 mg/kg): 73.03%
- Tumor ([3]; dose 26 mg/kg): 0.41 ± 0.27 g
- Body Weight (g) (d1) ([3]; dose 26 mg/kg, d 1): 23.72 ± 1.79 g
- Body Weight (g) (d 7) ([3]; dose 26 mg/kg, d 7): 23.68 ± 1.32 g
- Relative Tumor Proliferation Rate (T/C) ([3]; dose 30 mg/kg): 28.78
- Relative Tumor Volume (RTV) ([3]; dose 30 mg/kg): 2.86 ± 1.44
- Tumor Volume (mm3) (d 1) ([3]; dose 30 mg/kg, d 1): 119.60 ± 31.11 mm3
- Tumor Volume (mm3) (d30) ([3]; dose 30 mg/kg, d 30): 307.34 ± 79.91 mm3

From US20200163984A1, “USE OF ISOVALERYL SPIRAMYCIN I, II AND/OR III IN MANUFACTURING MEDICAMENT FOR TREATING AND/OR PREVENTING TUMOR, AND MEDICAMENT” (SHENYANG FUYANG PHARMACEUTICAL TECHNOLOGY CO., LTD., priority 2017, published 2020)
